Assay results: patent US12509437B2, “Substituted thiophene carboxamides and derivatives thereof as microbicides” (Bayer Aktiengesellschaft, priority 2019, dated 2025)
Where two headings read alike, the source gives them in different places.

Assays:
[1] = tested on: Alternaria alternata; assay: Alternaria alternata in vitro cell test; type: cell-based; conditions: 120 h, 5 days incubation, read-out: efficacy (inhibition of fungal growth; no direct activity); for inhibition at 5 ppm: 5 ppm of active ingredient; for inhibition at 20 ppm: 20 ppm of active ingredient
Procedure: (§1) • Solvent: DMSO • Culture medium: 14.6 g anhydrous D-glucose (VWR), 7.1 g Mycological Peptone (Oxoid), 1.4 g granulated Yeast Extract (Merck), QSP 1 liter • Inoculum: spores suspension Fungicides were solubilized in DMSO and the solution used to prepare the required range of concentrations. The final concentration of DMSO used in the assay was ≤[…]1%. A spore suspension of A. alternata was prepared and diluted to the desired spore density. Fungicides were evaluated for their ability to inhibit spore germination and mycelium growth in liquid culture assay. The compounds were added in the desired concentration to the culture medium with spores. After 5 days incubation, fungi-toxicity of compounds was determined by spectrometric measurement of mycelium growth. Inhibition of fungal growth was determined by comparing the absorbance values in wells containing the fungicides with the absorbance in control wells without fungicides.

[2] = tested on: Colletotrichum lindemuthianum; assay: Colletotrichum lindemuthianum in vitro cell test; type: cell-based; conditions: 144 h, 6 days incubation, read-out: efficacy (inhibition of fungal growth; no direct activity); for inhibition at 5 ppm: 5 ppm of active ingredient; for inhibition at 20 ppm: 20 ppm of active ingredient
Procedure: as §1, with “of C. lindemuthianum” for “of A. alternata”, “inhibit spores” for “inhibit spore”, “After 6” for “After 5”

[3] = LogP by HPLC on reversed phase columns (EEC directive 79/831 Annex V.A8); type: physicochemical; conditions: reversed phase HPLC columns
Procedure: [table] If more than one Log P value is available within the same method, all the values are given and separated by “+”. Calibration was done with straight-chain alkan2-ones (with 3 to 16 carbon atoms) with known Log P values (measurement of Log P values using retention times with linear interpolation between successive alkanones). Lambda-max-values were determined using UV-spectra from 200 nm to 400 nm and the peak values of the chromatographic signals.

[4] = tested on: salicylate responsive promoter sequence of the PR1 (pathogenesis-related protein I) gene (AT2G14610); assay: Induction of defense gene expression in Arabidopsis thaliana (PR1 promoter-GFP reporter plants); type: in vivo; conditions: 72 h, 3rd day after spraying, mock treated leaves set as 1.00, read-out: relative fluorescence value
Procedure: Arabidopsis thaliana reporter plants containing the coding sequence of a green fluorescent protein (GFP) linked to the salicylate responsive promoter sequence of the PR1 (pathogenesis-related protein I) gene (AT2G14610) were grown for five days and then sprayed with compounds. On the 3rd day after spraying, plant fluorescence was assessed with a MacroFluo instrument from Leica Microsystems (Wetzlar, Germany). Fluorescences were quantified with the Meta-Morph Microscopy Automation & Image Analysis Software (Molecular Devices, Sunnyvale, Calif., United States). Background fluorescence in mock treated leaves was set as 1.00.

[5] = tested on: Pseudomonas syringae pv. tomato; assay: Pseudomonas syringae pv. tomato in vitro cell test; type: cell-based; conditions: 20 ppm of active ingredient, 24 h of incubation, read-out: efficacy (inhibition of bacteria growth; no direct activity)
Procedure: (§2) • Solvent: DMSO • Culture medium: LB broth medium (Luria Broth Miller) Sigma • Inoculum: bacteria suspension Compounds were solubilized in DMSO and the solution used to prepare the required range of concentrations. The final concentration of DMSO used in the assay was ≤1%. Inoculum was prepared from a pre-culture of bacteria grown in liquid medium and diluted to the desired optical density (OD). Compounds were evaluated for their ability to inhibit bacteria growth in liquid culture assay. The compounds were added in the desired concentrations to culture medium containing the bacteria suspension. After 24 h of incubation, the efficacy of compounds was determined by spectrometric measurement of bacteria growth. Inhibition was determined by comparing the absorbance values in wells containing the compounds with the absorbance in control wells without active ingredients.

[6] = tested on: Xanthomonas campestris pv. campestris; assay: Xanthomonas campestris pv. campestris in vitro cell test; type: cell-based; conditions: 24 h of incubation, read-out: efficacy (inhibition of bacteria growth; no direct activity); for inhibition at 5 ppm: 5 ppm of active ingredient; for inhibition at 20 ppm: 20 ppm of active ingredient
Procedure: as §2

[7] = tested on: Peronospora parasitica; assay: In vivo preventive test on Peronospora parasitica (Crucifer downy mildew) on cabbage; conditions: Hyaloperonospora parasitica, 120 h, sprayed 72 hours before inoculation, evaluated 5 days after inoculation, read-out: efficacy; for pest or weed control at 125 ppm: 125 ppm of active ingredient; for pest or weed control at 500 ppm: 500 ppm of active ingredient; for pest or weed control at 31 ppm: 31 ppm of active ingredient
Procedure: (§3) The tested active ingredients were prepared by homogenization in a mixture of acetone/Dimethyl sulfoxide/Tween®, and then diluted with water to obtain the desired active material concentration.
(§4) The young plants of cabbage were treated by spraying the active ingredient prepared as described above. Control plants were treated only with an aqueous solution of acetone/Dimethyl sulfoxide/Tween®.
After 72 hours, the plants were contaminated by spraying the leaves with an aqueous suspension of Peronospora parasitica spores. The contaminated cabbage plants were incubated for 5 days at 20° C. and at 100% relative humidity.
The test was evaluated 5 days after the inoculation. 0% means an efficacy which corresponds to that of the control plants while an efficacy of 100% means that no disease was observed.

[8] = tested on: Uromyces appendiculatus; assay: In vivo preventive test on Uromyces appendiculatus (bean rust); conditions: 240 h, sprayed 72 hours before inoculation, evaluated 10 days after inoculation, read-out: efficacy; for pest or weed control at 500 ppm: 500 ppm of active ingredient; for pest or weed control at 31 ppm: 31 ppm of active ingredient; for pest or weed control at 125 ppm: 125 ppm of active ingredient
Procedure: as §3
(§5) The young plants of bean were treated by spraying the active ingredient prepared as described above. Control plants were treated only with an aqueous solution of acetone/Dimethyl sulfoxide/Tween®.
After 72 hours, the plants were contaminated by spraying the leaves with an aqueous suspension of Uromyces appendiculatus spores. The contaminated bean plants were incubated for 24 hours at 20° C. and at 100% relative humidity and then for 9 days at 20° C. and at 70-80% relative humidity.
The test was evaluated 10 days after the inoculation. 0% means an efficacy which corresponds to that of the control plants while an efficacy of 100% means that no disease was observed.

[9] = tested on: Colletotrichum lindemuthianum; assay: In vivo preventive test on Colletotrichum lindemuthianum (Anthracnose on bean); conditions: Colletotrichum lindemuthianum, 144 h, sprayed 72 hours before inoculation, evaluated 6 days after inoculation, read-out: efficacy
Procedure: as §3, §5
After 72 hours, the plants were contaminated by spraying the leaves with an aqueous suspension of Colletotrichum lindemuthianum spores. The contaminated bean plants were incubated for 24 hours at 20° C. and at 100% relative humidity and then for 5 days at 20° C. and at 90% relative humidity.
The test was evaluated 6 days after the inoculation. 0% means an efficacy which corresponds to that of the control plants while an efficacy of 100% means that no disease was observed.

[10] = tested on: Xanthomonas campestris pv. campestris; assay: In vivo preventive test on Xanthomonas campestris pv. campestris (black rot on cabbage); conditions: Xanthomonas campestris, sprayed 72 hours before inoculation, evaluated 8 or 10 days after inoculation, read-out: efficacy; for pest or weed control at 500 ppm: 500 ppm of active ingredient
Procedure: as §3, §4
After 72 hours, the plants were contaminated by spraying the leaves with an aqueous bacteria suspension of Xanthomonas campestris pv. campestris. The contaminated cabbage plants were incubated for 8 or 10 days at 27° C. at 95% relative humidity.
The test was evaluated 8 or 10 days after the inoculation. 0% means an efficacy which corresponds to that of the control plants while an efficacy of 100% means that no disease was observed.

[11] = preparation examples, method not indicated, read-out: Log P

Row | SMILES | chromatographic logP ([3]; method [a]) | inhibition at 5 ppm [1] [%] | inhibition at 20 ppm [1] [%] | inhibition at 5 ppm [2] [%] | inhibition at 20 ppm [2] [%] | fold induction at 300 ppm [4] | inhibition at 20 ppm [5] [%] | inhibition at 5 ppm [6] [%] | inhibition at 20 ppm [6] [%] | pest or weed control at 125 ppm [7] [%] | pest or weed control at 500 ppm [7] [%] | pest or weed control at 500 ppm [8] [%] | pest or weed control at 31 ppm [8] [%] | pest or weed control at 31 ppm [7] [%] | fold induction at 75 ppm [4] | further results
1 | CONC(=O)[C@@H](NC(=O)c1sc(Br)c(Br)c1C)C(C)C [I.074, N^2-[(4,5-dibromo-3-methyl-2-thienyl)carbonyl]-N-methoxyvalinamide] | – | ≤ 30 | ≤ 30 | ≤ 30 | ≤ 30 | > 2 | ≤ 30 | ≤ 30 | ≤ 30 | – | – | – | – | – | – | chromatographic logP [3, 11]: 2.77
2 | CCOC(=O)CN(C)C(=O)c1sc(Br)c(Br)c1C [I.056] | 3.23 | ≤ 30 | ≤ 30 | ≤ 30 | – | – | ≤ 30 | ≤ 30 | ≤ 30 | 80 to 89 | 90 to 100 | – | – | – | – | –
3 | COC(=O)C1(NC(=O)c2sc(Br)c(Br)c2C)CCC(F)(F)CC1 [I.005] | 3.83 | ≤ 30 | ≤ 30 | ≤ 30 | – | – | ≤ 30 | ≤ 30 | ≤ 30 | – | – | 90 to 100 | – | – | – | –
4 | COC(=O)C1(NC(=O)c2cc(Cl)c(Cl)s2)CC1 [CMP4, reference compound] | – | – | – | – | – | – | – | – | – | 0 | 0 | – | < 40 | – | – | pest or weed control at 31 ppm ([9]; 31 ppm of active ingredient): 0%; pest or weed control at 125 ppm ([9]; 125 ppm of active ingredient): < 40%; pest or weed control at 31 ppm ([10]; 31 ppm of active ingredient): 0%; pest or weed control at 500 ppm [10]: 0%
5 | COC(=O)C1(NC(=O)c2sc(Br)c(Br)c2C)CSC1 [I.015] | 3.31 | ≤ 30 | – | ≤ 30 | ≤ 30 | > 2 | ≤ 30 | ≤ 30 | ≤ 30 | 90 to 100 | 90 to 100 | 90 to 100 | 90 to 100 | 90 to 100 | > 2 | –
6 | CCOC(=O)C1(NC(=O)CNC(=O)c2sc(Br)c(Br)c2C)CC1 [I.024, ethyl 1-({N-[(4,5-dibromo-3-methyl-2-thienyl)carbonyl]glycyl}amino)cyclopropanecarboxylate] | – | ≤ 30 | ≤ 30 | ≤ 30 | ≤ 30 | – | ≤ 30 | ≤ 30 | ≤ 30 | – | – | – | – | – | > 2 | chromatographic logP [3, 11]: 2.55

The next lines start with results.

Row | chromatographic logP ([3]; method [a]) | SMILES | inhibition at 5 ppm [1] [%] | inhibition at 20 ppm [1] [%] | inhibition at 5 ppm [2] [%] | inhibition at 20 ppm [2] [%] | fold induction at 300 ppm [4] | inhibition at 20 ppm [5] [%] | inhibition at 5 ppm [6] [%] | inhibition at 20 ppm [6] [%] | pest or weed control at 125 ppm [7] [%] | pest or weed control at 500 ppm [7] [%] | pest or weed control at 500 ppm [8] [%] | pest or weed control at 31 ppm [8] [%] | pest or weed control at 31 ppm [7] [%] | fold induction at 75 ppm [4] | further results
7 | 3.46 | CCOC(=O)C(COC)NC(=O)c1sc(Br)c(Br)c1C (centres unmarked) [I.034] | ≤ 30 | ≤ 30 | ≤ 30 | – | > 2 | ≤ 30 | ≤ 30 | ≤ 30 | – | – | 90 to 100 | – | – | – | pest or weed control at 500 ppm [10]: 80 to 89%
8 | 2.26 | CCOC(=O)C(CC(N)=O)NC(=O)c1sc(Br)c(Br)c1C (centres unmarked) [I.016] | ≤ 30 | ≤ 30 | ≤ 30 | ≤ 30 | > 2 | ≤ 30 | ≤ 30 | ≤ 30 | 90 to 100 | 90 to 100 | 80 to 89 | 90 to 100 | 90 to 100 | > 2 | pest or weed control at 125 ppm [8]: 90 to 100%
9 | 3.17 | COC(=O)CC[C@H](NC(=O)c1sc(Br)c(Br)c1C)C(=O)OC [I.136] | ≤ 30 | ≤ 30 | ≤ 30 | ≤ 30 | > 2 | ≤ 30 | ≤ 30 | ≤ 30 | 90 to 100 | 90 to 100 | 90 to 100 | 90 to 100 | 80 to 89 | > 2 | pest or weed control at 125 ppm [8]: 90 to 100%
